Test results as given in patent US20210069356A1, “ISOTOPOLOGUES OF 2-(4-CHLOROPHENYL)-N-((2-(2,6-DIOXOPIPERIDIN-3-YL)-1-OXOISOINDOLIN-5-YL)METHYL)-2,2-DIFLUOROACETAMIDE” (Celgene Corporation, priority 2018, published 2021).

Tests used:
[1] = tested on: KG-1 cell line; test: KG-1 cell proliferation, CellTiter-Glo assay; type: cell-based; settings: Homo sapiens; KG-1 cells, 72 hours post-treatment; read-out: FCA Prolif Cell TiterGlo KG-1 72 h (IC50)
Procedure: (§1) The anti-proliferative activity of the test compounds was evaluated on KG-1 and KG-1a cell lines using CellTiter-Glo assay as described in U.S. Pat. No. 9,499,514 at 72 hours post-treatment.

[2] = tested on: KG-1a cell line; test: KG-1a cell proliferation, CellTiter-Glo assay; type: cell-based; settings: Homo sapiens; KG-1a cells, 72 hours post-treatment; read-out: FCA Prolif Cell TiterGlo KG-1a 72 h (IC50)
Procedure: as §1

## [2H]c1cc(C(F)(F)C(=O)NCc2ccc3c(c2)CN(C2CCC(=O)NC2=O)C3=O)ccc1Cl (stereo not drawn)
[1]
  IC50: 0.0155 µM
[2]
  IC50: 0.0181 µM

## [2H]c1cc(Cl)ccc1C(F)(F)C(=O)NCc1ccc2c(c1)CN(C1CCC(=O)NC1=O)C2=O (stereo not drawn)
[1]
  IC50: 0.0369 µM
[2]
  IC50: 0.0299 µM

## [2H]c1c([2H])c(C(F)(F)C(=O)NCc2ccc3c(c2)CN(C2CCC(=O)NC2=O)C3=O)c([2H])c([2H])c1Cl (stereo not drawn)
[1]
  IC50: 0.0262 µM
[2]
  IC50: 0.0313 µM
